Experimental data taken from patent US11278561B2, “Combination treatment for hematological cancers” (Geron Corporation, priority 2016, dated 2022).

What was measured:
[1] = tested on: telomerase; assay: telomerase activity by qPCR TRAP in KG-1 lysates; type: cell-based, human; settings: 50 μM imetelstat sodium or 20 nM ABT-199
Procedure: Samples from the previous section for protein analysis were collected as cell pellets by centrifugation at 5 minutes for 1500K for lyses and protein extraction. Protein lysates were analyzed by utilizing a modified method combined from two primary sources (Hou, et al. (2001) 43(3) 519-524 and Nature Protocols (2006) 1 (3) 1583-1590). Lysates were generated by adding 80 μL of a 10 mM Tris-EDTA, 1% NP-40, 10% Glycerol, 150 mM NaCl, 1 mM MgCl2, 250 μM Sodium Deoxycholate, 100 μM AEBSF, 5 mM 2-mercaptoethanol buffer and incubating on ice for 30 minutes. Lysates were centrifuged for 15 minutes at max speed and at 4° C. to pellet cellular debris. Protein yield from clarified lysates were quantified using a BCA assay (ThermoFisher catalog 23252) and subjected to a qPCR TRAP-based assay to determine relative telomerase activity (Power SYBR Green PCR Master Mix—ThermoFisher #4367659) using a ViiA7 Real-Time PCR system from ThermoFisher. In this assay, protein lysates are exposed to synthetic oligonucleotides mimicking telomere sequences in the presence of excess dNTPs and SYBR green dye. The greater the activity of telomerase, the greater extension of the synthetic primers, and therefore greater staining of nucleic acid and signal generated by the SYBR dye. This signal is compared to a standard curve of control protein lysate to determine the relative telomerase activity between samples.

[2] = tested on: MOLM-13 AML disseminated model; assay: MOLM-13 AML disseminated mouse model, survival; type: in vivo; settings: MOLM-13 implanted SCID-beige mice; imetelstat sodium or MM 30 mg/kg ip TIW x 4 weeks, ABT-199 100 mg/kg po qd x 4 weeks
Procedure: An in vivo study in the MOLM-13 AML disseminated mouse model was conducted to assess efficacy and survival. Specifically, on day 0 of the study, MOLM-13 AML tumor cells were implanted into mice. […] The percent survival of the mice was assessed as a function of time (days post tumor cell implantation). The study lasted for a total of 108 days (77 days after stopping treatment).
Fifty female SCID-beige mice (6-week-old, Jackson Laboratory) were intravenously injected with 1 million MOLM-13 cells and randomly divided into five groups.
Mice were observed daily and body weights were measured twice a week. The survival of mice in each group was followed. The study was terminated on day 108, which was 77 days post last treatment. The increased life span (“ILS”) was evaluated for each group, and the % ILS versus the vehicle control was calculated as: % ILS=100×(T−C)/C where T is the median survival of the treatment group and C is the median survival of the control group.

CC1(C)CCC(CN2CCN(c3ccc(C(=O)NS(=O)(=O)c4ccc(NCC5CCOCC5)c([N+](=O)[O-])c4)c(Oc4cnc5[nH]ccc5c4)c3)CC2)=C(c2ccc(Cl)cc2)C1 [ABT-199, 4-[4-[[2-(4-chlorophenyl)-4,4-dimethylcyclohexen-1-yl]methyl]piperazin-1-yl]-N-[3-nitro-4-(oxan-4-ylmethylamino)phenyl]sulfonyl-2-(1H-pyrrolo [2,3-b]pyridin-5-yloxy)benzamide]
telomerase activity as compared to control ([1]; KG-1, 48 hours): no effect | telomerase activity as compared to control ([1]; KG-1, 96 hours): ~80% | % ILS (increased life span as compared to vehicle control) [2]: 36.3% | Median Survival [2]: 30 days
